Source: patent US9434734B2, “Substituted pyrazoloquinazolinones and pyrroloquinazolinones as allosteric modulators of group II metabotropic glutamate receptors” (Domain Therapeutics, priority 2012, dated 2016)
pIC50: −log10 of the molar value.

Key:
[1] = biological target: T1, human mGluR2 (hmGluR2) transiently over-expressed in HEK-293 cells (Homo sapiens, UniProt Q14416); assay: Human mGluR2 negative allosteric modulator evaluation using Ca++ functional assay (agonist and NAM activity); type: cell-based; details: hmGluR2 in HEK-293 cells, EC80 glutamate, Fluo4AM calcium readout; read-out: mGluR2 negative allosteric modulator activity IC50
T1 construct: expressed in transfected cells; host or cells: HEK-293 cells, transient co-transfection by electroporation
Procedure, shortened: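 Compound alone (agonist mode) was followed on the same plate by EC80 glutamate (NAM mode), with fluorescence read 60 s. Eight-point curves, variable-slope fit, duplicate, two independent runs.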

human mGluR3 (hmGluR3) = human mGluR3 (hmGluR3) (Homo sapiens, UniProt Q14832); assay: mGluR3 negative allosteric modulator activity; type: cell-based
Chain of human mGluR3 (hmGluR3) (Q14832 23-879): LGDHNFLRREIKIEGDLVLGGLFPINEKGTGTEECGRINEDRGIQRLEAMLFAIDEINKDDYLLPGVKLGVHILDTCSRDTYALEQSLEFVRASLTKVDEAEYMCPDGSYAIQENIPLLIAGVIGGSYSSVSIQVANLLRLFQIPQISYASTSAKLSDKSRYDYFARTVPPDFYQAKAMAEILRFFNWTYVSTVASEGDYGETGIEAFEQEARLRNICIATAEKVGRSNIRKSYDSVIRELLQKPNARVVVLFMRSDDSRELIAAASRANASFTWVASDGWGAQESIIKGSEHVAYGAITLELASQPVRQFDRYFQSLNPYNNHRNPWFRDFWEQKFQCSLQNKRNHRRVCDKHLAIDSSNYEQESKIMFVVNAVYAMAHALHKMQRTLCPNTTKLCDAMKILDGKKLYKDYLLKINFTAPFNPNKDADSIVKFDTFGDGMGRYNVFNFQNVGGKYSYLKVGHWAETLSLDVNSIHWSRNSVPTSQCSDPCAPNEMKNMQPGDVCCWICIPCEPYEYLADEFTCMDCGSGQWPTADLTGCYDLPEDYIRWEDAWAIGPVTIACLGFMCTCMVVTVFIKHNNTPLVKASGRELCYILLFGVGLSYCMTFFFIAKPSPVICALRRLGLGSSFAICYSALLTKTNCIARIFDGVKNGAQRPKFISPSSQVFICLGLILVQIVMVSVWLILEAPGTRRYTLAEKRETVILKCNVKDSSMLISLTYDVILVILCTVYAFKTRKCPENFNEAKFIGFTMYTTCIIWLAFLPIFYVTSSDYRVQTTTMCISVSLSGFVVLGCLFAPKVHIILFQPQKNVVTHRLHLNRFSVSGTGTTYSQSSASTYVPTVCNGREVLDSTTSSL

T1 sequence (Q14416 19-872): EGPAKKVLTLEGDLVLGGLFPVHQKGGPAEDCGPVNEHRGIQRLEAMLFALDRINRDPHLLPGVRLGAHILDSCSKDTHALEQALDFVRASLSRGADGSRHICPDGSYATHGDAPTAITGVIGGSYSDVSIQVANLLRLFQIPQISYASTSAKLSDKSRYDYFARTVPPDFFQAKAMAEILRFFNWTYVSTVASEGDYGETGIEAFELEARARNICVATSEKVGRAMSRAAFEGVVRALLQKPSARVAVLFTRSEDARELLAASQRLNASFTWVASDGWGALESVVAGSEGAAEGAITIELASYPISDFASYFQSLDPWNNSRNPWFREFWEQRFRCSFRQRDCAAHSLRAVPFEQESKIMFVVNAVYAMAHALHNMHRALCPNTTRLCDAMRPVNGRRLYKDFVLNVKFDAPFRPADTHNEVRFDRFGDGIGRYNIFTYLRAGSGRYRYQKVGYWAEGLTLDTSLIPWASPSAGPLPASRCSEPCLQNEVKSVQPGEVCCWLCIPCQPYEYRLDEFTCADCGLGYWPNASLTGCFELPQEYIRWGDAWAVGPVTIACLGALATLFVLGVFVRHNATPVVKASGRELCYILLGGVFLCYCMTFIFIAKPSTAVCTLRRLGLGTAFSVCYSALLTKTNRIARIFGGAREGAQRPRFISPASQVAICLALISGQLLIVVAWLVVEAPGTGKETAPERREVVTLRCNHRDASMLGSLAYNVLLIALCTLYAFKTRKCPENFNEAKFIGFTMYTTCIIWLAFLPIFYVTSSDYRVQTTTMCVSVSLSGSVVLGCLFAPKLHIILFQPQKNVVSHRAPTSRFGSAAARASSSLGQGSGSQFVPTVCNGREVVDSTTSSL

SMILES | pIC50 [1] | pIC50 (human mGluR3 (hmGluR3)) | melting point
CCn1c(=O)c2ccc(-c3ccc(N)nc3)cc2n2nc(C3CCCC3)cc12.Cl [Example 69, 8-(6-Amino-pyridin-3-yl)-2-cyclopentyl-4-ethyl-4H-pyrazolo[1,5-a]quinazolin-5-one] | > 6.00 | > 6.00 | > 250 °C
Cc1cc(-c2ccc3c(=O)n(C)c4cc(-c5ccnc(C(F)(F)F)c5)nn4c3c2)ccn1.Cl [Example 138, 4-Methyl-8-(2-methyl-pyridin-4-yl)-2-(2-trifluoromethyl-pyridin-4-yl)-4H-pyrazolo[1,5-a]quinazolin-5-one] | > 6.00 | – | > 250 °C
Cn1c(=O)c2ccc(-c3ccnc(C(F)(F)F)c3)cc2n2nc(-c3ccnc(C(F)(F)F)c3)cc12 [Example 139, 4-Methyl-2,8-bis-(2-trifluoromethyl-pyridin-4-yl)-4H-pyrazolo[1,5-a]quinazolin-5-one] | > 6.00 | – | > 250 °C
Cn1c(=O)c2ccc(-c3ccc(F)nc3)cc2n2nc(-c3ccnc(C(F)(F)F)c3)cc12 [Example 141, 8-(6-Fluoro-pyridin-3-yl)-4-methyl-2-(2-trifluoromethyl-pyridin-4-yl)-4H-pyrazolo[1,5-a]quinazolin-5-one] | > 6.00 | – | > 250 °C
Cc1ncncc1-c1ccc2c(=O)n(C)c3cc(-c4ccnc(C(F)(F)F)c4)nn3c2c1.Cl [Example 144, 4-Methyl-8-(4-methyl-pyrimidin-5-yl)-2-(2-trifluoromethyl-pyridin-4-yl)-4H-pyrazolo[1,5-a]quinazolin-5-one] | > 6.00 | – | > 250 °C
Cc1n[nH]c(C)c1-c1ccc2c(=O)n(C)c3cc(-c4ccnc(C(F)(F)F)c4)nn3c2c1 [Example 145, 8-(3,5-Dimethyl-1H-pyrazol-4-yl)-4-methyl-2-(2-trifluoromethyl-pyridin-4-yl)-4H-pyrazolo[1,5-a]quinazolin-5-one] | > 6.00 | – | > 250 °C

Results, then the compound that gave them:

pIC50 [1] | pIC50 (human mGluR3 (hmGluR3)) | melting point | SMILES
> 6.00 | > 6.00 | > 250 °C | Cn1c(=O)c2ccc(-c3cccc(C(=O)O)c3)cc2n2nc(-c3ccccc3)cc12 [Example 34, 3-(4-Methyl-5-oxo-2-phenyl-4,5-dihydro-pyrazolo[1,5-a]quinazolin-8-yl)-benzoic Acid]
> 6.00 | – | > 250 °C | Cn1c(=O)c2ccc(-c3ccnc(F)c3)cc2n2nc(-c3ccnc(C(F)(F)F)c3)cc12 [Example 140, 8-(2-Fluoro-pyridin-4-yl)-4-methyl-2-(2-trifluoromethyl-pyridin-4-yl)-4H-pyrazolo[1,5-a]quinazolin-5-one]
> 6.00 | – | > 250 °C | Cc1ccc(-c2ccc3c(=O)n(C)c4cc(-c5ccnc(C(F)(F)F)c5)nn4c3c2)c(C)n1.Cl [Example 143, 8-(2,6-Dimethyl-pyridin-3-yl)-4-methyl-2-(2-trifluoromethyl-pyridin-4-yl)-4H-pyrazolo[1,5-a]quinazolin-5-one]
> 6.00 | – | > 250 °C | Cc1cc(-c2cc3n(C)c(=O)c4ccc(-c5c(C)n[nH]c5C)cc4n3n2)cc(C)n1.Cl [Example 146, 8-(3,5-Dimethyl-1H-pyrazol-4-yl)-2-(2,6-dimethyl-pyridin-4-yl)-4-methyl-4H-pyrazolo[1,5-a]quinazolin-5-one]
> 6.00 | – | > 250 °C | Cc1cc(-c2cc3n(C)c(=O)c4ccc(-c5c[nH]nc5C(F)(F)F)cc4n3n2)cc(C)n1.Cl [Example 147, 2-(2,6-Dimethyl-pyridin-4-yl)-4-methyl-8-(3-trifluoromethyl-1H-pyrazol-4-yl)-4H-pyrazolo[1,5-a]quinazolin-5-one]
